In patent publication US7282150B2, “Method of extracting and method of purifying an effective substance” (Ezaki Glico Co., Ltd., priority 2001, dated 2007):
Blank lines part the entries; values can stand above or below the compound they belong to.

What was measured:
[1] = THF extraction of glucoamylase (XL-4) treated glycosylation reaction solution; format: physicochemical; settings: 1 ml + 1 ml THF
Experimental: Thereafter, the mixture was incubated at 45° C. for 3 or 4 hours. After the incubation, the contents of glucose and maltose in the solution were confirmed by a HPLC analysis method. […] Glucose and maltose in the eluate were detected by a RI detector. […] After shaking, the mixture was allowed to stand for 1 hour. […] The aqueous phase was recovered. […] The amounts of glucose and maltose were measured by an HPLC analysis method using the aqueous phase. […] Glucose and maltose in the eluate were detected by a RI detector. […] Based on the obtained results and the above-described glucose concentration, maltose concentration and HQG concentration before extraction with THF, the extraction rate to the THF phase was calculated.

[2] = THF extraction of unconcentrated or concentrated glucoamylase-treated glycosylation reaction solution; format: physicochemical; settings: for Extraction rate (%), THF phase total: three THF extractions, 30° C.
Experimental: Thereafter, glucoamylase treatment was performed at 45° C. for 4 hours, thereby obtaining a reaction solution. […] Extraction was conducted under a condition of 30° C. The mixture was allowed to stand for 1 hour. The mixture was separated into two phases. The upper THF phase was recovered. […] The obtained THF phases were combined together. Note that although an intermediate layer was generated in the concentrate during the phase separation, the intermediate layer was included in the aqueous phase.

[3] = Influence of temperature on extraction to a tetrahydrofuran phase; format: physicochemical; settings: aqueous phase made up to 5 ml
Experimental: Thereafter, the mixture was incubated at 45° C. for 4 hours to obtain a post-glucoamylase treatment reaction solution. […] Thereafter, the mixture was centrifuged at 3000 rpm for 5 minutes. […] The aqueous phase was recovered.

[4] = Extraction from aqueous 30% glucose solution with tetrahydrofuran or acetonitrile (absorbance at 280 nm of aqueous phase); format: physicochemical; settings: single extraction; for starting amount extracted in the tetrahydrofuran phase: 10 ml THF + 10 ml aqueous solution containing 30% glucose; for starting amount extracted in the acetonitrile phase: 10 ml acetonitrile + 10 ml aqueous solution containing 30% glucose
Experimental: (§1) 1 g of a mixture of catechins (SUNPHENON®; manufactured by Taiyo Kagaku Co., Ltd.) was dissolved in 100 ml of an aqueous solution containing 30% glucose to obtain a sample aqueous solution. The absorbance at 280 nm of the sample aqueous solution was measured. […] Thereafter, the mixture was allowed to stand for 30 minutes. […] The lower phase (aqueous phase) was recovered, and the volume and the absorbance at 280 nm thereof were measured. The amount of the catechins extracted in the upper phase (polar organic solvent phase) was calculated from a reduction in the absorbance at 280 nm of the lower phase and the solution volume of the lower phase.
This additional extraction operation to Example 1a was conducted except for use of 10 ml of acetonitrile instead of 10 ml of tetrahydrofuran.
as §1, with “of hesperidin glycosides (manufactured” for “of a mixture of catechins (SUNPHENON®; manufactured”, “by Toyo Sugar Refining” for “by Taiyo Kagaku”, “Ltd.) were” for “Ltd.) was”, “of hesperidin glycosides” for “of the catechins”, “phase. […] Further, similar operations and measurements were performed twice more by adding 5 ml of tetrahydrofuran to the aqueous phase recovered after the tetrahydrofuran extraction.” for “phase.”
This additional extraction operation to Example 3a was conducted except for use of 10 ml of acetonitrile instead of 10 ml of tetrahydrofuran.
as §1, with “salicin” for “a mixture of catechins (SUNPHENON®; manufactured by Taiyo Kagaku Co., Ltd.)”, “salicin” for “the catechins”
This additional extraction operation to Example 5a was conducted except for use of 10 ml of acetonitrile instead of 10 ml of tetrahydrofuran.
as §1, with “caffeic acid” for “a mixture of catechins (SUNPHENON®; manufactured by Taiyo Kagaku Co., Ltd.)”, “caffeic acid” for “the catechins”
This additional extraction operation to Example 7a was conducted except for use of 10 ml of acetonitrile instead of 10 ml of tetrahydrofuran.
as §1, with “salicyl alcohol” for “a mixture of catechins (SUNPHENON®; manufactured by Taiyo Kagaku Co., Ltd.)”, “salicyl alcohol” for “the catechins”
This additional extraction operation to Example 9a was conducted except for use of 10 ml of acetonitrile instead of 10 ml of tetrahydrofuran.

[5] = Extraction from aqueous 30% glucose + 10% sodium chloride solution with acetone or isopropanol (absorbance at 280 nm of aqueous phase); format: physicochemical; settings: single extraction; for starting amount extracted in the acetone phase: 10 ml acetone + 10 ml aqueous solution containing 30% glucose and 10% sodium chloride; for starting amount extracted in the isopropanol phase: 10 ml isopropanol + 10 ml aqueous solution containing 30% glucose and 10% sodium chloride
Experimental: as §1, with “Kagaku)” for “Kagaku Co., Ltd.)”, “glucose and 10% sodium chloride” for “glucose”
This additional extraction operation to Example 2a was conducted except for use of 10 ml of isopropanol instead of 10 ml of acetone.
as §1, with “of hesperidin glycosides (Toyo Sugar Refining” for “of a mixture of catechins (SUNPHENON®; manufactured by Taiyo Kagaku”, “Ltd.) were” for “Ltd.) was”, “glucose and 10% sodium chloride” for “glucose”, “of hesperidin glycosides” for “of the catechins”, “phase. […] Further, similar operations and measurements were performed twice more by adding 5 ml of acetone to the aqueous phase recovered after the acetone extraction.” for “phase.”
This additional extraction operation to Example 4a was conducted except for use of 10 ml of isopropanol instead of 10 ml of acetone.
as §1, with “salicin” for “a mixture of catechins (SUNPHENON®; manufactured by Taiyo Kagaku Co., Ltd.)”, “glucose and 10% sodium chloride” for “glucose”, “salicin” for “the catechins”
This additional extraction operation to Example 6a was conducted except for use of 10 ml of isopropanol instead of 10 ml of acetone.
as §1, with “caffeic acid” for “a mixture of catechins (SUNPHENON®; manufactured by Taiyo Kagaku Co., Ltd.)”, “glucose and 10% sodium chloride” for “glucose”, “caffeic acid” for “the catechins”
This additional extraction operation to Example 8a was conducted except for use of 10 ml of isopropanol instead of 10 ml of acetone.
as §1, with “0.1 g” for “1 g”, “of salicyl alcohol” for “of a mixture of catechins (SUNPHENON®; manufactured by Taiyo Kagaku Co., Ltd.)”, “glucose and 10% sodium chloride” for “glucose”, “of salicyl alcohol” for “of the catechins”
This additional extraction operation to Example 10a was conducted except for use of 10 ml of isopropanol instead of 10 ml of acetone.

[6] = Acetone extraction of hesperidin from orange juice concentrate with sodium chloride (HPLC); format: physicochemical; settings: single extraction, orange juice five-fold concentrate + equal volume 15% sodium chloride solution
Experimental: 10 ml of 15% sodium chloride solution was added to 10 ml of California orange juice concentrate (five-fold concentrate), and stirred to homogeneity, thereby obtaining an aqueous solution. The amount of hesperidin in the California orange juice concentrate used was measured by HPLC using a column ODS, where the mobile phase was a mixture of acetonitrile and water at 20:80, the flow rate was 0.5 ml/min, and the column temperature was 40° C. The absorbance of the eluate was detected at 280 nm. A specific method of detecting the amount of hesperidin is described in Japanese Laid-Open Publication No. 8-80177. […] Thereafter, the mixture was allowed to stand for 30 minutes. […] The upper phase (polar organic solvent phase) was recovered, and the volume thereof was measured. The amount of hesperidin was measured by HPLC as described above. As a result, by a single extraction operation, 75% of hesperidin was extracted in the acetone phase.

[7] = cited from earlier work
[8] = unconcentrated amylase treatment reaction solution

Extraction rate to THF (%) ([1]; (XL-4) 1-fold glucoamylase treatment solution): 38.6%
Extraction rate to THF (%) ([1]; (XL-4) 1.5-fold glucoamylase treatment solution): 33.0%
Extraction rate to THF (%) ([1]; (XL-4) 2-fold glucoamylase treatment solution): 36.4%
Corrected concentration (equivalent in 5 ml) %, THF phase total ([2]; 70% concentrate): 0%
Extraction rate (%), THF phase total ([2]; 70% concentrate): 0%
Corrected concentration (equivalent in 5 ml) %, THF phase total ([2]; 80% concentrate): 0%
Extraction rate (%), THF phase total ([2]; 80% concentrate): 0%
Corrected concentration (equivalent in 5 ml) %, THF phase total [2, 8]: 0.1%
Extraction rate (%), THF phase total [2, 8]: 3.2%
SMILES: OC[C@H]1O[C@H](O[C@H]2[C@H](O)[C@@H](O)C(O)O[C@@H]2CO)[C@H](O)[C@@H](O)[C@@H]1O (mixture of isomers) [Maltose, maltose]

concentration of the aqueous phase after THF extraction ([3]; 3° C.): 0.9%
concentration of the aqueous phase after THF extraction ([3]; 10° C.): 0.7%
concentration of the aqueous phase after THF extraction ([3]; 20° C.): 1.0%
concentration of the aqueous phase after THF extraction ([3]; 22° C.): 1.0%
concentration of the aqueous phase after THF extraction ([3]; 30° C.): 1.0%
concentration of the aqueous phase after THF extraction ([3]; 45° C.): 1.2%
SMILES: Oc1ccc(O)cc1 [HQ, hydroquinone]

starting amount extracted in the tetrahydrofuran phase [4]: 88.6%
starting amount extracted in the acetonitrile phase [4]: 76.2%
starting amount extracted in the acetone phase [5]: 78.2%
starting amount extracted in the isopropanol phase [5]: 87.2%
SMILES: O=C(O)/C=C/c1ccc(O)c(O)c1 [caffeic acid]

SMILES: COc1ccc([C@@H]2CC(=O)c3c(O)cc(O[C@@H]4O[C@H](CO[C@@H]5O[C@@H](C)[C@H](O)[C@@H](O)[C@H]5O)[C@@H](O)[C@H](O)[C@H]4O)cc3O2)cc1O [hesperidin]
hesperidin extracted in the acetone phase [6]: 75%
solubility in acetone [7]: insoluble in acetone
solubility in water [7]: poorly soluble in water

SMILES: C[C@@H]1O[C@@H](O[C@H]2[C@H](Oc3cc(O)c4c(c3)O[C@H](c3ccc(O)cc3)CC4=O)O[C@H](CO)[C@@H](O)[C@@H]2O)[C@H](O)[C@H](O)[C@H]1O [naringin]
solubility in water [7]: poorly soluble in water

SMILES: COc1ccc([C@@H]2CC(=O)c3c(O)cc(O[C@@H]4O[C@H](CO)[C@@H](O)[C@H](O)[C@H]4O[C@@H]4O[C@@H](C)[C@H](O)[C@@H](O)[C@H]4O)cc3O2)cc1O [neohesperidin]
solubility in water [7]: poorly soluble in water

SMILES: C[C@@H]1O[C@@H](OC[C@H]2O[C@@H](Oc3c(-c4ccc(O)c(O)c4)oc4cc(O)cc(O)c4c3=O)[C@H](O)[C@@H](O)[C@@H]2O)[C@H](O)[C@H](O)[C@H]1O [rutin]
solubility in acetone [7]: insoluble in acetone
solubility in water [7]: poorly soluble in water

starting amount extracted in the tetrahydrofuran phase [4]: 96.5%
starting amount extracted in the acetonitrile phase [4]: 98.1%
starting amount extracted in the acetone phase [5]: 58.0%
starting amount extracted in the isopropanol phase [5]: 97.0%
SMILES: OCc1ccccc1O[C@@H]1O[C@H](CO)[C@@H](O)[C@H](O)[C@H]1O [salicin]

starting amount extracted in the tetrahydrofuran phase [4]: 98.7%
starting amount extracted in the acetonitrile phase [4]: 98.2%
starting amount extracted in the acetone phase [5]: 87.7%
starting amount extracted in the isopropanol phase [5]: 98.7%
SMILES: OCc1ccccc1O [salicyl alcohol]
